Source: US9670238B1 (priority 2015, dated 2017)
“Also recorded” adds a separate entry of the source. Where two headings read alike, the source gives them in different places.

How the values were obtained:
[1] = biological target: T1, CDA (1-146aa), Human, His-tagged, Recombinant cytidine deaminase (Homo sapiens, UniProt P32320); format: in vitro ADME; details: PBS with cytidine deaminase, 37° C., about 30 minutes to 1 hour
T1 construct: CDA (1-146aa), Human, His-tagged; His tag; purchased ATGen
Experimental: 1 mg each of the 5′-dibenzyl phosphate derivatives of 5-azacytidines (formula (1)) was dissolved in 1 mL of acetonitrile. 10 μL of the solution was diluted with 1 mL of PBS. 10 μL of PBS solution of cytidine deaminase was added and stirred at 37° C. for about 30 minutes to 1 hour. 1 mL of acetonitrile was added to the reaction solution and separated by centrifugation. The supernatant obtained was analyzed with HPLC.
Cytidine deaminase: CDA (1-146aa), Human, His-tagged, Recombinant cytidine deaminase (ATGen)
Column: CAPCELL PAK ADME (4.6 mm×150 mm, particle size:3 μm)
Elution: A=Purified water containing 10 mM ammonium formate • B=Acetonitrile • Gradient mode: A:B=99:1→5:95/30 minutes

[2] = tested on: myeloma cells (RPMI-8226); experiment: Anti-myeloma activity, inhibition of cell proliferation; format: cell-based; details: RPMI-8226, 72 hours incubation, cell count
Experimental: To the solutions containing about 4000 myeloma cells (RPMI-8226), solutions of 5′-dibenzyl phosphate derivatives of 5-azacytidines at concentrations of 0.0033 μM, 0.01 μM, 0.033 μM, 0.1 μM, 0.33 μM, 1 μM, 3.3 μM, 10 μM, 33 μM, or 100 μM were added. After incubation in RPMI-1640 (containing 10% FBS and 1% Penn-strep) for 72 hours, cell count was determined and the values of IC50 were calculated as inhibitory effect against cell proliferation (referring to Journal of Clinical Pathology, 2006, 59, 947-951).

[3] = Non-enzymatic hydrolysis reactivity in PBS solution at 37° C. (HPLC); format: physicochemical; details: for Hydrolysis in PBS solution to the corresponding 5-azacytidines (in words): 37° C., up to 24 hours; for 5-Azacytidine or 2′-deoxy-5-azacytidine (%) After 4 hours / 5-Azacytidine or 2′-deoxy-5-azacytidine (%) After 8 hours / 5-Azacytidine or 2′-deoxy-5-azacytidine (%) After 24 hours: PBS pH7.4 to 7.5, 37° C.
Experimental: About 1 mg each of the obtained 5′-dibenzyl phosphate derivatives of 5-azacytidines (referring to formula (1)), such as O,O′-dibenzyl 5-azacytidylate (compound A) or O,O′-dibenzyl 2′-deoxy-5-azacytidylate (compound B) was dissolved in 1 mL of acetonitrile. 5 μL of the solution was added to 100 μL of PBS solution (pH7.4 to 7.5) and the solution was stirred at 37° C. The reactions were traced by HPLC analysis.
HPLC conditions were same as those in test example 1.

[4] = Partition coefficient (n-octanol/PBS); format: physicochemical
Source text: The separation systems using a silica gel column, separation yields, data obtained from instrumental analysis and partition coefficients of 5′-dibenzyl (or diphenethyl, diphenyl) phosphate derivatives of 5-azacytidines (compounds A to H) which were synthesized according to the methods A and B are shown as below.

T1 sequence (P32320 whole entry): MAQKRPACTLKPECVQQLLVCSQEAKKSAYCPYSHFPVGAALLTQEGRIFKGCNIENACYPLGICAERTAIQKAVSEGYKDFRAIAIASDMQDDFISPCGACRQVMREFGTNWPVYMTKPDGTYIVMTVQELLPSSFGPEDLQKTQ

Compound | Change in HPLC pattern (peak of the starting material) [1] | IC50 [2] [µM] | Hydrolysis in PBS solution to the corresponding 5-azacytidines (in words) [3] | Change in HPLC pattern (peak of the starting material) ([1]; listed as 2′-deoxy-5-azacytidine) | IC50 ([2]; Homo sapiens) [µM] | 5-Azacytidine or 2′-deoxy-5-azacytidine (%) After 4 hours [3] [%] | 5-Azacytidine or 2′-deoxy-5-azacytidine (%) After 8 hours [3] [%] | 5-Azacytidine or 2′-deoxy-5-azacytidine (%) After 24 hours [3] [%] | Partition coefficient, Log P [4]
O,O′-di(4-fluoro)benzyl 2′-deoxy-5-azacytidylate [compound D] | Almost no change in the peak of the starting | 0.78 |  |  |  |  |  |  | 
O,O′-diphenethyl 5-azacytidylate [compound F] | Almost no change in the peak of the starting |  | almost no change was confirmed even after 24 hours; also recorded: could not be observed |  |  |  |  |  | 
O,O′-diphenyl 2′-deoxy-5-azacytidylate [compound H] | extremely stable |  |  |  |  |  |  |  | 
Nc1ncn([C@H]2C[C@H](O)[C@@H](CO)O2)c(=O)n1 [2′-Deoxy-5-azacytidine, 2′-deoxy-5-azacytidine, reference compound] | The peak of the starting material disappeared |  |  | disappeared completely | 0.03 |  |  |  | 
O,O′-dibenzyl 2′-deoxy-5-azacytidylate [compound B] | Almost no change in the peak of the starting |  | gradually hydrolyzed |  |  | 8 | 8 | 45 | 
O,O′-diphenyl 5-azacytidylate [compound G] | extremely stable | > 100 | almost no change was confirmed even after 24 hours; also recorded: could not be observed |  |  |  |  |  | 
O,O′-dibenzyl 5-azacytidylate [compound A] | Almost no change in the peak of the starting | 1.71 | gradually hydrolyzed |  |  | 18 | 35 | 67 | 0.83
